Laboratory results: ChEMBL document CHEMBL1130830, “Broad spectrum matrix metalloproteinase inhibitors: an examination of succinamide hydroxamate inhibitors with P1 C alpha gem-disubstitution” (Bioorg Med Chem Lett, 1998)

Experiments:
[1] = biological target: Stromelysin-1 (Homo sapiens, UniProt P08254); experiment: Inhibition of Matrix metalloprotease-3 (MMP-3)
[2] = biological target: 72 kDa type IV collagenase (Homo sapiens, UniProt P08253); experiment: Inhibition of Matrix metalloprotease-2 (MMP-2)
[3] = biological target: T1, Interstitial collagenase (Homo sapiens, UniProt P03956); experiment: Inhibition of matrix metalloprotease-1 (MMP-1)
T1 sequence (P03956 whole entry): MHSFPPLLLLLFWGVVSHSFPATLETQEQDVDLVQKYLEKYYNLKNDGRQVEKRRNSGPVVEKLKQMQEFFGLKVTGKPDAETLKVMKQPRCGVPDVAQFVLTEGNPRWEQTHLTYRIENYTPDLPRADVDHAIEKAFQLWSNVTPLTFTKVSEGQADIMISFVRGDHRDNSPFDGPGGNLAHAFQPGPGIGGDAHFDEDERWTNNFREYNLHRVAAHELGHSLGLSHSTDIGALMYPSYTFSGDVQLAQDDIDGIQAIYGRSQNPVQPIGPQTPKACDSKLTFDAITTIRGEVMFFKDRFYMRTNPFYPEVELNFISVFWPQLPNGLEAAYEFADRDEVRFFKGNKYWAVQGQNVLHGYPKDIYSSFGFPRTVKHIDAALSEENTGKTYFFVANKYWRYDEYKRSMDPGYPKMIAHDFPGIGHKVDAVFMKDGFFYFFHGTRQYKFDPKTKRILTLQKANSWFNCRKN

Stromelysin-1, sequence (P08254 whole entry): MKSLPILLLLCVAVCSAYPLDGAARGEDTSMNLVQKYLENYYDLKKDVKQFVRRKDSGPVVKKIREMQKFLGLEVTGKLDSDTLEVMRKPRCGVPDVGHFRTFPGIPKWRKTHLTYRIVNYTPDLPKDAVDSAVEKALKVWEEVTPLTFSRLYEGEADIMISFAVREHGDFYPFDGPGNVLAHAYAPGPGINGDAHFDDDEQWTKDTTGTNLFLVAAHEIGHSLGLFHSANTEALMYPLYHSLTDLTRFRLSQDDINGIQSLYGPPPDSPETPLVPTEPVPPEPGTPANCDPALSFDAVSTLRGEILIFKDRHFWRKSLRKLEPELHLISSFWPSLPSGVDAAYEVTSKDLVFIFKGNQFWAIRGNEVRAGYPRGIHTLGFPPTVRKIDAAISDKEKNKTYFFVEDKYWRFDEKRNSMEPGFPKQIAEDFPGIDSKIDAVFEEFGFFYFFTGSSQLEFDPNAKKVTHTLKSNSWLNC
72 kDa type IV collagenase, sequence (P08253 whole entry): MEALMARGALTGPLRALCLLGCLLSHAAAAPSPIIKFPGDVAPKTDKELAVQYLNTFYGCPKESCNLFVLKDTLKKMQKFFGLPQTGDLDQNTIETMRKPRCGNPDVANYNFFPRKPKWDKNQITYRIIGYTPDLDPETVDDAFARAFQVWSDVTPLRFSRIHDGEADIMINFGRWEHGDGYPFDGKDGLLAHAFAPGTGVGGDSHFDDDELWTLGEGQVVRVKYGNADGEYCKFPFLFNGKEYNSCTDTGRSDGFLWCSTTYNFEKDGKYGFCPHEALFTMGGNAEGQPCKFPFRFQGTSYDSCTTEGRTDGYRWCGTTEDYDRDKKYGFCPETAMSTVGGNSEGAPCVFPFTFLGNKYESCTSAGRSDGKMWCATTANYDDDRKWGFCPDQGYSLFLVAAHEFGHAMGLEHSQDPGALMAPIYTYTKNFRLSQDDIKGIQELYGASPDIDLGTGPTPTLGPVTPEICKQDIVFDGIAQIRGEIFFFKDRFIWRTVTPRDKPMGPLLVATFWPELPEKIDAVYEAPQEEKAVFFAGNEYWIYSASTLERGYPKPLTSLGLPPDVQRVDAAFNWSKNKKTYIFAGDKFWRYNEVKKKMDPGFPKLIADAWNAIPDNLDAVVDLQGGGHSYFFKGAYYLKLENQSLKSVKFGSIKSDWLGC

| Compound | IC50 [1] [nM] | IC50 [2] [nM] | IC50 [3] [nM] |
| --- | --- | --- | --- |
| CNC(=O)[C@H](Cc1ccccc1)NC(=O)[C@H](CC(C)C)C1(C(=O)NO)CCCC1 | 170 | 50 | 37 |
| C=CC[C@](C)(C(=O)NO)[C@@H](CC(C)C)C(=O)N[C@@H](CC1CCCCC1)C(=O)NCCc1ccccc1 | 160 | 64 | 110 |
| C=CC[C@](C)(C(=O)NO)[C@@H](CC(C)C)C(=O)N[C@@H](CC1CCCCC1)C(=O)NCCc1ccc(S(N)(=O)=O)cc1 | 15 | 23 | 6.9 |
| C=CC[C@](C)(C(=O)NO)[C@@H](CC(C)C)C(=O)N[C@H](C(=O)Nc1ccccc1)C(C)(C)C | 95 | 6.2 | 50 |
| CNC(=O)[C@H](Cc1ccccc1)NC(=O)[C@H](CC(C)C)[C@H](C)C(=O)NO | 50 | 1.3 | 1.3 |
| C=CC[C@](C)(C(=O)NO)[C@@H](CC(C)C)C(=O)N[C@H](C(=O)NC)C(C)(C)C | 480 | 2.5 | 2.7 |
| C=CC[C@](C)(C(=O)NO)[C@@H](CC(C)C)C(=O)N[C@@H](Cc1ccccc1)C(=O)Nc1ccccc1 | 91 | 52 | 120 |
| C=CC[C@@H](C(=O)NO)[C@@H](CC(C)C)C(=O)N[C@@H](Cc1ccccc1)C(=O)NC | 59 | 35 | 35 |
| C=CCC(C(=O)NO)C(CC(C)C)C(=O)N[C@@H](Cc1ccccc1)C(=O)NC (single isomer, unassigned) | 12 | 1.8 | 2.2 |

Results, then the molecule that gave them:

| IC50 [1] [nM] | IC50 [2] [nM] | IC50 [3] [nM] | Compound |
| --- | --- | --- | --- |
| 2600 | 110 | 550 | C=CCC(CC=C)(C(=O)NO)[C@@H](CC(C)C)C(=O)N[C@@H](Cc1ccccc1)C(=O)NC |
| 420 | 66 | 52 | C=CC[C@@](C)(C(=O)NO)[C@@H](CC(C)C)C(=O)N[C@@H](Cc1ccccc1)C(=O)NC |
| 170 | 2.3 | 9.4 | CNC(=O)[C@H](Cc1ccccc1)NC(=O)[C@H](CC(C)C)C(C)(C)C(=O)NO |
| 25 | 4.2 | 3.1 | C=CC[C@](C)(C(=O)NO)[C@@H](CC(C)C)C(=O)N[C@@H](Cc1ccccc1)C(=O)NC |
